Molecules are shown by their SMILES. Where “and” joins values, the source holds several entries; their conditions need not be identical. Equal values may be shown once. Where a name gives a salt, the structure may show the parent alone. Where a SMILES comes first, the peptide text is derived from it.

The test system of the first test is cytochrome c. Format: cell-based, mouse.
Settings: not given
`CC(=C(CCO)SSCC1CCCO1)N(C=O)Cc1cnc(C)nc1N` (stereo in doubt) [fursultiamine] displayed a cyt c of 0.477.
As to `NC1(C(=O)O)CCC1` [1-aminocyclobutane carboxylic acid], the cyt c is reported as −0.335.
`Cc1cc(O)cc(=O)o1` [4-hydroxy-6-methylpyran-2-one]: the cyt c is −0.316.
On to `NCCCCCC(=O)O` [6-aminocaproic acid], for which the “cyt c (composite Z-score vs DMSO mock-treated wells)” value is −0.680.
In turn, `Cc1n[nH]c(=O)[nH]c1=O` [6-azathymine] gave a cyt c of 0.583.
Turning to `Nc1c2c(nc3ccccc13)CCCC2` [9-amino-1,2,3,4-tetrahydroacridine], the “cyt c (composite Z-score vs DMSO)” value is 0.967.
The compound `CC(=O)N[C@@H](CC(C)C)C(=O)O` [N-acetyl-L-leucine] returned a cyt c of 0.648.
Still for that read-out and setting: the value for `CNc1ccccc1C(=O)O` [N-methylanthranilic acid] was 0.299.
For `CC(=O)Nc1ccccc1` [acetanilide], the “cyt c (composite Z-score vs DMSO)” value is 0.532.
Same read-out and setting: to `CC(=O)Nc1nnc(S(N)(=O)=O)s1` [acetazolamide] belongs 0.698 and 0.613.
In the case of `NCCCCCC(=O)O` [aminocaproic acid], the “cyt c (composite Z-score vs DMSO mock-treated wells)” value came out at 0.280.
On to `NC1(C(=O)O)CC1` [aminocyclopropanecarboxylic acid], for which the “cyt c (composite Z-score vs DMSO)” value turned out to be 0.213.
In the case of `Cn1c(=O)c2[nH]cnc2n(C)c1=O` [aminophylline], the “cyt c (composite Z-score vs DMSO)” value was determined as 0.177.
Same read-out and setting: to `CC(C)NCC(O)COc1ccc(CC(N)=O)cc1` (centres unmarked) [atenolol, reference compound] belongs 0.403.
`CC(C)c1c(C(=O)Nc2ccccc2)c(-c2ccccc2)c(-c2ccc(F)cc2)n1CC[C@@H](O)C[C@@H](O)CC(=O)O` [atorvastatin, reference compound] had a cyt c of −1.023.
The same measure, in the same setting: the value for `CN1[C@@H]2CC[C@H]1C[C@@H](OC(=O)C(CO)c1ccccc1)C2` (some centres unmarked) [atropine sulfate] was 0.071; that for `CN1[C@@H]2CC[C@H]1C[C@@H](OC(=O)C(CO)c1ccccc1)C2` (some centres unmarked) [atropine] was 1.709.
On the same count and under the same terms, the value for `CCCC1C(=O)N2C(N(C)C)=Nc3ccc(C)cc3N2C1=O` (centres unmarked) [azapropazone] was 0.418.
For `CN1[C@@H]2CC[C@H]1C[C@@H](OC(c1ccccc1)c1ccccc1)C2` [benztropine], the “cyt c (composite Z-score vs DMSO mock-treated wells)” value was −1.170.
On to `O=C(OCc1ccccc1)c1ccccc1` [benzyl benzoate], for which the “cyt c (composite Z-score vs DMSO)” value was 0.394.
In turn, `CC1=C(/C=C/C(C)=C/C=C/C(C)=C/C=C/C=C(C)/C=C/C=C(C)/C=C/C2=C(C)CCCC2(C)C)C(C)(C)CCC1` [beta-carotene] yielded a cyt c of 0.027.
Compound `CC(C)NCC(O)COc1ccc(CCOCC2CC2)cc1` (centres unmarked) [betaxolol] gave a cyt c of 0.064.
On to `c1ccc(-c2ccc(C(c3ccccc3)n3ccnc3)cc2)cc1` (centres unmarked) [bifonazole], for which the cyt c was found to be 0.179.
On to `CC[N+](C)(C)Cc1ccccc1Br` [bretylium], for which the cyt c is 0.560 and the “cyt c (composite Z-score)” value was found to be 0.295.
`O=C1CC2(CCCC2)CC(=O)N1CCCCN1CCN(c2ncccn2)CC1` [buspirone] gave a cyt c of 0.228.
As for `Cn1c(=O)c2c(ncn2C)n(C)c1=O` [caffeine], the “cyt c (composite Z-score vs DMSO)” value worked out at 0.292.
As to `CC1(C)[C@@H](OC(=O)CCC(=O)O)CC[C@]2(C)[C@H]3C(=O)C=C4[C@@H]5C[C@@](C)(C(=O)O)CC[C@]5(C)CC[C@@]4(C)[C@]3(C)CC[C@@H]12` [carbenoxolone], the cyt c came to 0.145.
The same measure, in the same setting: the value for `C[C@@H]1CC[C@H]2C(C)(C)[C@H]3C[C@@]12CC[C@@]3(C)O` [cedrol] was −0.218; that for `O=C(O)COCCN1CCN(C(c2ccccc2)c2ccc(Cl)cc2)CC1` (centres unmarked) [cetirizine] was 0.507.
The compound `CC(C)CCC[C@@H](C)[C@H]1CC[C@H]2[C@@H]3CC=C4CC(=O)CC[C@]4(C)[C@H]3CC[C@]12C` [cholest-5-en-3-one] returned a cyt c of 0.600.
Still for that read-out and setting: the value for `C[C@H](CCC(=O)O)[C@H]1CC[C@H]2[C@@H]3[C@H](O)C[C@@H]4C[C@H](O)CC[C@]4(C)[C@H]3C[C@H](O)[C@]12C` [cholic acid] was 0.514.
Consider `C[N+](C)(C)CCO` [choline], for which the “cyt c (composite Z-score vs DMSO)” value came out at 0.713.
With `CN/C(=N/CCSCc1nc[nH]c1C)NC#N` [cimetidine], the cyt c is 0.794 and 0.587.

Still in this test, the particulars now being: composite Z-score vs mock-treated (DMSO) wells; concentration of each compound in μM.
Turning to `NCC(CC(=O)O)c1ccc(Cl)s1` (centres unmarked) [4-amino-3-(5-chlorothien-2-yl)butanoic acid], the cyt c is listed as 0.593.
The same measure, in the same setting: to `COc1ccc(-c2cc(=O)c3c(OC)cc(O)cc3o2)cc1` [5,4′-dimethoxy-7-hydroxyflavone] belongs 0.173; to `CC(=O)N[C@@H](CC(=O)O)C(=O)N[C@@H](CCC(=O)O)C(=O)O` [N-acetylaspartylglutamic acid] (Ac-Asp-Glu-OH), 0.480; to `N[C@@H](Cc1c[nH]cn1)C(=O)Nc1ccc2ccccc2c1` [N-histidyl-2-aminonaphthalene], 0.214.
Still for that read-out and setting: the value for `CCOC(=O)C1=C(COCCN)NC(C)=C(C(=O)OC)C1c1ccccc1Cl` (centres unmarked) [amlodipine] was 0.902; that for `O=C1C(O)=C([C@H]2CC[C@H](c3ccc(Cl)cc3)CC2)C(=O)c2ccccc21` [atovaquone] was −0.124.
As to `COc1ccc(CC2c3cc(OC)c(OC)cc3CC[N+]2(C)CCC(=O)OCCCCCOC(=O)CC[N+]2(C)CCc3cc(OC)c(OC)cc3C2Cc2ccc(OC)c(OC)c2)cc1OC` (centres unmarked) [atracurium], the cyt c is 1.176.
On the same count and under the same terms, to `CN1CCCC(n2nc(Cc3ccc(Cl)cc3)c3ccccc3c2=O)CC1` (centres unmarked) [azelastine] belongs 0.054.
On to `COc1c(O)cc2c(c1O)[C@@H]1O[C@H](CO)[C@@H](O)[C@H](O)[C@H]1OC2=O` [bergenin], for which the cyt c is reported as 0.831.
On the same count and under the same terms, the value for `N=C(N)NOCC[C@H](N)C(=O)O` [canavanine] was −0.321; that for `C[C@]12CCC(=O)C=C1C=C[C@@H]1[C@@H]2CC[C@@]2(C)[C@H]1CC[C@@]21CCC(=O)O1` [canrenone] was 0.816; that for `COc1ccccc1OCCNCC(O)COc1cccc2[nH]c3ccccc3c12` (centres unmarked) [carvedilol] was −4.745.
Same read-out and setting: to `NC(=O)c1cc[n+](CC2=C(C(=O)O)N3C(=O)[C@@H](NC(=O)[C@@H](c4ccccc4)S(=O)(=O)[O-])[C@H]3SC2)cc1` [cefsulodin] belongs −1.078.
On to `CC(C)(O/N=C(\C(=O)N[C@@H]1C(=O)N2C(C(=O)[O-])=C(C[n+]3ccccc3)CS[C@H]12)c1csc(N)n1)C(=O)O` [ceftazidime], for which the cyt c is listed as 0.740.
Regarding `O=C(Cc1cccs1)N[C@@H]1C(=O)N2C(C(=O)[O-])=C(C[n+]3ccccc3)CS[C@H]12` [cephaloridine], the cyt c was −0.278.
On the same count and under the same terms, to `C=C[C@H]1CN2CC[C@H]1C[C@H]2[C@H](O)c1ccnc2ccccc12` [cinchonidine] belongs −0.164; to `C[N+](C)(C)CCOP(=O)(O)OP(=O)([O-])OC[C@H]1O[C@@H](n2ccc(N)nc2=O)[C@H](O)[C@@H]1O` [citicoline], 0.322.

Staying with this test, now noted: normalized score (composite Z-score vs DMSO mock-treated wells); compound concentration (μM).
As to `CC(C)NCC(O)COc1ccc(COCCOC(C)C)cc1` (centres unmarked) [bisoprolol], the cyt c amounted to 0.874.
On the same count and under the same terms, to `COc1cc(N)c(Cl)cc1C(=O)NC1CCN(CCCOc2ccc(F)cc2)CC1OC` (centres unmarked) [cisapride] belongs −0.495.

The values above are taken from patent US20090143279A1 (priority 2007, published 2009).
